Format in all cases: physicochemical
Series [1] can be described thus: Water content by the Karl Fischer method. Here is the method: The water content (% by weight) of each crystal was determined by the Karl Fischer method.
The nature of series [2]: Dispersibility test of PQQ disodium crystals in soybean oil (precipitation time). Conditions: 5 mg crystal in 200 μL soybean oil, room temperature, time until all floating crystals precipitated to the bottom, index of dispersibility. An excerpt:
In this example, the PQQ disodium crystal in Crystalline Form 1 and Crystalline Form 2 was compared in dispersibility in edible oils with the conventional crystals.
After drying, the pressure in the vessel was returned to atmospheric pressure, and immediately the glass vessel was closed with a lid. […] After drying, the temperature within the flask was reduced to room temperature with nitrogen gas refluxed.
Then, they were allowed to stand still at room temperature, and the time period until all of the crystals floating on the soybean oil were precipitated to the bottom of the vessel was measured, which was used as an index of dispersibility for each crystal.

Series [3] can be described thus: Heat stability on heating in edible oil (high performance liquid chromatography). The note with it: after heating in edible oil ODO at 150° C. for 30 minutes.
Series [4] in a line: Thermogravimetric analysis of water content. Conditions: crystal formed at 180° C. The source says:
However, this crystal was unstable.

The mark [5] stands for this setting: resulting crystal after the drying step, % by weight.

Regarding `O=C([O-])c1cc(C(=O)[O-])c2c(n1)C(=O)C(=O)c1cc(C(=O)O)[nH]c1-2.[Na+].[Na+]` [Comparative Example 1, reference compound], the water content turned out to be 14.5% in series [1] (crystal as precipitated with ethanol, before drying) and 9.6% in series [1] (setting [5]).
Turning to “pyrroloquinoline quinone disodium crystal [Precursor crystal, reference compound]”, the Precipitation time in series [2] and in series [2] (listed as precursor crystal) was 0.5 min each time. For the same compound, the water content in series [1] (after disposal at 40° C. and relative humidity 75%) came to 12.7%.
“pyrroloquinoline quinone disodium crystal [Crystalline Form 1]”: in series [3], the “amount of impurities contained in the crystal” value was “did not increase”. Also, the Precipitation time in series [2] was 30 min. Moreover, the water content in series [1] (setting [5]) is recorded as 0.7%; in series [1] (resulting crystal after the drying step, % by weight, listed as Example 2), 2.2%; in series [1] (resulting crystal after the drying step, % by weight, listed as Example 3) it was 1.9%.
In series [2], “pyrroloquinoline quinone disodium crystal [Crystalline Form 2]” gave a Precipitation time of 45 min. The compound also gave a water content in series [4] of roughly 0%.
